Measured values reported in paper PMC2917805 (Journal of medicinal chemistry, 2010).

Key:
iNOS protein expression = assay: Western blot of iNOS expression in LPS-stimulated RAW 264.7 cells; type: cell-based; details: 34 μM; for effect on iNOS protein expression: LPS-stimulated RAW 264.7 cells; for relative iNOS protein expression: relative to LPS-treated control, LPS 1 μg/mL, 18 h
[1] = test system: HL-60 human acute leukemia cells; assay: Cell cycle analysis, subG1 accumulation; type: cell-based
[2] = Stability in RPMI 1640 cell culture medium; type: physicochemical
[3] = test system: quinone reductase 1 (QR1); assay: QR activity in cell culture; type: cell-based, murine; details: Hepa 1c1c7 cells
[4] = DPPH free-radical scavenging
[5] = cell culture medium, 37 °C, 24 h

SMILES: Oc1ccc(/C=C/c2cc(O)cc(O)c2)cc1 [Resveratrol, 3,5,4′-trihydroxystilbene, reference compound]
- effect on iNOS protein expression (iNOS protein expression): moderately suppressed the expression of iNOS
- accumulation of HL-60 cells in subG1 [1]: active
- remaining at 0 h ([2]; RPMI 1640 cell culture medium): 100 ± 0.3%
- remaining at 24 h ([2]; RPMI 1640 cell culture medium): 46.8 ± 8.7%
- degradation during 24 h [2, 5]: ~ 50%

SMILES: O=S(=O)([O-])Oc1ccc(/C=C/c2cc(OS(=O)(=O)[O-])cc(OS(=O)(=O)[O-])c2)cc1.[K+].[K+].[K+] [compound 2, Resveratrol Tripotassium 3,5,4′-Sulfate]
- QR1 CD (concentration to double the expression of QR1) [3]: > 11.7 µM
- DPPH free radical scavenging [4]: inactive

SMILES: O=S(=O)([O-])Oc1ccc(/C=C/c2cc(O)cc(OS(=O)(=O)[O-])c2)cc1.[K+].[K+] [compound 3, Resveratrol Dipotassium 3,4′-Sulfate]
- QR1 CD (concentration to double the expression of QR1) [3]: > 10.1 µM

SMILES: O=S(=O)([O-])Oc1cc(/C=C/c2ccc(O)cc2)cc(OS(=O)(=O)[O-])c1.[K+].[K+] [compound 4, Resveratrol Tripotassium 3,5-Sulfate]
- QR1 CD (concentration to double the expression of QR1) [3]: > 10.1 µM

SMILES: O=S(=O)([O-])Oc1cc(O)cc(/C=C/c2ccc(O)cc2)c1.[K+] [compound 5, Resveratrol Potassium 3-Sulfate]
- effect on iNOS protein expression (iNOS protein expression): moderately suppressed the expression of iNOS
- relative iNOS protein expression (iNOS protein expression): 0.54

SMILES: O=S(=O)([O-])Oc1ccc(/C=C/c2cc(O)cc(O)c2)cc1.[K+] [compound 7, Resveratrol Potassium 4′-Sulfate]
- QR1 CD (concentration to double the expression of QR1) [3]: > 6.9 µM
- effect on iNOS protein expression (iNOS protein expression): moderately suppressed the expression of iNOS
- relative iNOS protein expression (iNOS protein expression): 0.67
- remaining at 0 h ([2]; buffer): 100 ± 2.2%
- remaining at 12 h ([2]; buffer): 95.1 ± 3%
- remaining at 24 h ([2]; buffer): 98.8 ± 3.1%
- stability [2, 5]: stable for 24 h
